US20110046046A1, “PROPHYLACTIC OR THERAPEUTIC COMPOSITION FOR DIABETES OR OBESITY” (priority 2008, published 2011)
*1 amine or outer side, *2 acyl side, *3 side chain or, on linkers, in order; H or OH if unused. Where no end group is shown, it is not given here. [ ]: non-standard residue; d: D form. γGlu = O=C(O)[C@H](CCC(=O)[*:2])N[*:1]; Met(O) = CS(=O)CC[C@H](N)C(=O)O

Columns and labels:
[1] = test system: CCK-producing cell strain STC-1; assay: Function to promote secretion of CCK from STC-1 cells; assay type: cell-based, mouse; conditions: incubation 37° C. for 60 minutes, CCK in supernatant by Enzyme immuno assay, vs Hepes B buffer control, FIG. 1
Description: A CCK-producing cell strain STC-1 derived from the mouse small intestine was cultured in a Dulbecco's modified Eagle's medium supplemented with 10% FBS at 37° C. in the presence of 5% CO2. The STC-1 cells were cultured in a 48-well plate for 2 to 3 days until the cells reached a subconfluent state. Prior to the addition of each of the samples, the wells were washed with a Hepes B buffer (140 mM NaCl, 4.5 mM KCl, 20 mM Hepes, 1.2 mM CaCl2, 1.2 mM MgCl2, 10 mM D-glucose, 0.1% BSA, pH 7.4), […] of a sample solution obtained by dissolving each of the samples in the same buffer were added to the wells, and incubation was performed at 37° C. for 60 minutes. γ-Glu-Cys-Gly (Sigma-Aldrich Japan K.K.), γ-Glu-Val-Gly, and cinacalcet were used as the samples. Further, the Hepes B buffer was used as a control. After supernatant collection, the cells were precipitated by centrifugation (800×g, 5 minutes, 4° C.), and 80 μl of the supernatant were collected and cryopreserved.
After the supernatant had been pretreated with an OASIS cartridge (C18), the concentration of CCK in the supernatant was measured with an Enzyme immuno assay kit (Phoenix Pharmaceuticals).

[2] = test system: calcium receptor; conditions: shown in WO 2007/055388, WO 2007/055393, WO 2008/139945-7; J. Biol. Chem. 2006; cited from earlier work
[3] = test system: GLP-1-producing cell strain GLUTag; assay: Function to promote secretion of GLP-1 from GLUTag cells; assay type: cell-based, mouse; conditions: incubation 37° C. for 60 minutes, GLP-1 in supernatant by Enzyme immuno assay, vs Hepes B buffer control, FIGS. 2 and 3
Description: A GLP-1-producing cell strain GLUTag derived from the mouse large intestine was cultured in a Dulbecco's modified Eagle's medium supplemented with 10% FBS at 37° C. in the presence of 5% CO2. The GLUTag cells were cultured in a 48-well plate for 2 to 3 days until the cells reached a subconfluent state. Prior to the addition of each of samples, the wells were washed with a Hepes B buffer (140 mM NaCl, 4.5 mM KCl, 20 mM Hepes, 1.2 mM CaCl2, 1.2 mM MgCl2, 10 mM D-glucose, 0.1% BSA, pH 7.4), 80 μl of a sample solution obtained by dissolving each of the samples in the same buffer were added to the wells, and incubation was performed at 37° C. for 60 minutes. γ-Glu-Cys-Gly and cinacalcet were used as the samples. Further, the Hepes B buffer was used as a control. After supernatant collection, the cells were precipitated by centrifugation (800×g, 5 minutes, 4° C.), and 70 μl of the supernatant were collected and cryopreserved. The concentration of GLP-1 in the supernatant was measured with a commercially available Enzyme immuno assay kit (Yanaihara Institute Inc.).
In the same manner as in Example 2, a function to promote the secretion of GLP-1 was examined using a GLP-1-producing cell strain GLUTag. γ-Glu-Cys and protamine were used as samples.

[4] = test system: male SD rats; assay: Oral glucose tolerance test in rats; assay type: in vivo; conditions: rat, oral 160 mg/kg with glucose 2 g/kg, at 15 and 30 minutes after glucose administration, compared to glucose solution alone; FIG. 5
Description: After male SD rats (7-week-old) had been preliminarily fed (for 3 to 4 days), and fasted overnight, they were subjected to an oral glucose tolerance test. Tail vein blood before specimen administration was collected, and a sample [glucose solution alone (2 g/kg weight)/glucose solution comprising γ-Glu-Cys (160 mg/kg weight)] was orally administered with a feeding tube. After sample administration, tail vein blood was collected at 15, 30, 60, 90, and 120 minutes, and the plasma glucose concentration was measured with a commercially available kit (manufactured by Wako Pure Chemical Industries, Ltd.).

[5] = test system: male SD rats; assay: GLP-1 secretion test in rats (ligated ileal loop); assay type: in vivo; conditions: rat, 20 mg/2 mL deionized water into ligated ileum loop, ileal mesenteric vein blood 30-120 minutes, compared to water administration group; FIG. 4
Description: After male SD rats (8-week-old) had been preliminarily fed, fasted overnight, and subjected to celiotomy under ketamine/xylazine anesthesia. GLP-1-producing cells are mainly distributed in an ileal site. Thus, after a ligated ileal loop (30 cm) had been prepared, a catheter was placed into the ileal mesenteric vein, and blood was collected from the catheter at the time of 0 minute (0 time). A sample (2 mL of deionized water, 20 mg of γ-Glu-Cys/2 mL of deionized water) was administered into the ligated ileum loop, blood was collected at 30, 60, 90, and 120 minutes after administration, respectively, and the plasma GLP-1 concentration was measured with an Enzyme immuno assay kit (manufactured by Yanaihara Institute Inc.).

Compound | calcium receptor activation [2] | also measured
[γGlu]-Val-Gly | – | promotion of secretion of CCK [1]: functioned to promote the secretion of CCK
γ-Glu-Val-ol | activate a calcium receptor | –
C[C@@H](NCCCc1cccc(C(F)(F)F)c1)c1cccc2ccccc12 [cinacalcet, (R)-N-(3-(3-(trifluoromethyl)phenyl)propyl)-1-(1-naphthyl)ethylamine, reference compound] | – | promotion of secretion of GLP-1 [3]: functioned to promote the secretion of GLP-1; promotion of secretion of CCK [1]: functioned to promote the secretion of CCK
[γGlu]-Val | activate a calcium receptor | –
Gly-Cys | activate a calcium receptor | –
Cys-Met | activate a calcium receptor | –
[γGlu]-Leu | activate a calcium receptor | –
[γGlu]-Cys | activate a calcium receptor | promotion of secretion of GLP-1 [3]: functioned to promote the secretion of GLP-1; blood glucose concentration [4]: significantly lower blood glucose concentration value; plasma GLP-1 concentration [5]: significantly higher elevation of plasma GLP-1 concentration
γ-Glu-Cys(S-Me)(O) | activate a calcium receptor | –
N[C@@H](CCC(=O)N[C@@H](CS)C(=O)NCC(=O)O)C(=O)O [γ-Glu-Cys-Gly] | is a calcium receptor activator | promotion of secretion of GLP-1 [3]: functioned to promote the secretion of GLP-1; promotion of secretion of CCK [1]: functioned to promote the secretion of CCK
[γGlu]-[γGlu]-Val | activate a calcium receptor | –
Asp-Gly | activate a calcium receptor | –
Glu-Cys | activate a calcium receptor | –
[γGlu]-Ala | activate a calcium receptor | –
γ-Glu-Orn | activate a calcium receptor | –
Cys-Gly | activate a calcium receptor | –
[γGlu]-Gly | activate a calcium receptor | –
[γGlu]-Met | activate a calcium receptor | –
[γGlu]-[Met(O)] | activate a calcium receptor | –
protamine | – | promotion of secretion of GLP-1 [3]: functioned to promote the secretion of GLP-1
[γGlu]-Val-NH2 | activate a calcium receptor | –
[γGlu]-Ile | activate a calcium receptor | –
Leu-Asp | activate a calcium receptor | –
[γGlu]-Ser | activate a calcium receptor | –
[γGlu]-Thr | activate a calcium receptor | –
γ-Glu-Tau | activate a calcium receptor | –
γ-Glu-t-Leu | activate a calcium receptor | –
γ-Glu-Cys(S-Me) | activate a calcium receptor | –
